In patent US20140315972A1, “RS)-2-(2-oxo-4-phenylpyrrolidin-1-yl)acetamide compound having modulatory activity with a commensurate effect, pharmaceutical substance (variants) and its application, composition (variants) thereof” (priority 2011, published 2014):
Marks after values point to notes of the source that are not given here.

Tested on: mice
Test: Spontaneous tumors in mice at autopsy
Assay type: in vivo
Details: for spontaneous tumors, Number, in %: mice, untreated control = 100
Experimental: The maximum life span (MLS) of mice according to our long-term statistical observations is 2.7-3, 2 years, i.e. in average 2.95 years or 1077 days. For this study we selected mice (10 individuals per group), males with dominant behavior in mixed groups, that safely survived to 985 days without signs of pronounced senility and with satisfactory orientation-exploratory behavior, determined by the “open field test” method. Phenotropil in doses of 25, 50 and 100 mg/kg was administered orally with 5.0% glucose solution. Glucose solution was used solely to improve the solubility of the drug. One control group received the glucose solution and the second one—distilled water. The third control group was not treated.
The greatest effect (Table 18) was obtained after treatment with Phenotropil in doses of 25 mg/kg (23.3%) and 100 mg/kg (24.0%). […] With a sample of 30 individuals in total in the three groups, we can talk about a high reliability of the findings.

NC(=O)CN1CC(c2ccccc2)CC1=O (racemic) [Compound 1, (RS)-2-(2-oxo-4-phenylpyrrolidine-1-yl)acetamide]
incidence and severity of spontaneous tumors lower by (100 mg/kg): 2.37 times
spontaneous tumors, Number, in % (25 mg/kg + 5.0% glucose solution): 57.0* %
spontaneous tumors, Number, in % (50 mg/kg + 5.0% glucose solution): 74.5* %
spontaneous tumors, Number, in % (100 mg + 5.0% glucose solution): 42.2* %
